Target: human DGAT2 (hDGAT2) (Homo sapiens (Human), UniProt Q96PD7)
Experiment: DGAT2 enzymatic activity assay (triolein formation, LC/MS/MS)
Format: biochemical
Settings: Sf-9 membrane prep expressing hDGAT2; 25 μM diolein, 10 μM oleoyl-CoA; triolein by LC/MS/MS
Protocol: Sf-9 insect cells were maintained in Grace's insect cell culture medium with 10% heated-inactivated fetal bovine serum, 1% Pluronic F-68 and 0.14 μg/ml Kanamycine sulfate in Erlenmeyer flasks at 28° C. in a shaker incubator. After infection with untagged baculovirus expressing human DGAT2 (hDGAT2) at multiplicity of infection (MOI) 0.1 for 48 hours, cells were harvested. Cell pellets were suspended in buffer containing 10 mM Tris-HCl (pH 7.5), 1 mM EDTA (pH 8.0), 250 mM sucrose and Complete Protease Inhibitor Cocktail (Roche Diagnostics Corp., Indianapolis, Ill.), and sonicated on ice. Membrane fractions were isolated by ultracentrifugation (100,000×g pellet), resuspended in the same buffer, and frozen (−80° C.) for later use. The protein concentration was determined with the BCA Protein Assay kit (Pierce Biotechnology Inc., Rockford, Ill.). Expression of protein levels was analyzed by immunoblotting with goat polyclonal DGAT2 antibody C-15 and donkey anti-goat IgG HRP (Santa Cruz Biotechnology, Inc., Santa Cruz, Calif.) followed by detection with ECL reagent (GE Healthcare, Piscataway, N.J.).
LC/MS/MS analyses were performed using Thermal Fisher's LX4-TSQ Vantage system. This system consists of an Agilent binary high-performance liquid chromatography (HPLC) pumps and a TSQ Vantage triple quadrupole MS/MS instrument. For each sample, 2 μL samples from the top organic layer of in-plate liquid-liquid extraction were injected onto a Thermo Betabasic C4 column (2.1 mm×20 mm, 5 μm particle size). The samples were then eluted using the following conditions; mobile phase: methanol/water with 0.1% ammonium format=92/8 (v/v), flow rate: 1 mL/min, temperature: 25 C. Data was acquired in positive mode using a heated electrospray ionization (HESI) interface. The operational parameters for the TSQ Vantage MS/MS instrument were a spray voltage of 3000 V, capillary temperature of 280° C., vaporizer temperature 400° C., shealth gas 60 arbitrary unit, Aux gas 40 arbitrary units, S-lens 113 and collision gas 0.16 Pascals. […] (SRM) chromatograms of triolein (Q1:902.9>Q3:602.3) and internal standard (Q1:902.9>Q3:602.3) were collected for 40 sec. The peak area was integrated by Xcalibur Quan software. The ratio between the triolein generated in the reaction and spiked in internal standard was used to generate percentage inhibition and IC50 values. Compound percentage inhibition was calculated by the following formula: Inhibition %/=1−[(compound response−low control)/(high control−low control)]×100%. Potent compounds were titrated and IC50 were calculated by 4 parameter sigmoidal curve fitting formula.
DGAT2 activity was determined by measuring the amount of enzymatic product triolein (1,2,3-Tri(cis-9-octadecenoyl)glycerol) using the membrane prep mentioned above. The assay was carried out in deep well 384 plates in a final volume of 40 μL at rt. The assay mixture contained the following: assay buffer (100 mM Tris.Cl, pH 7.0, 20 mM MgCl2, 5% ethanol), 25 μM of diolein, 10 μM of oleoyl-CoA and 10 ng/μL of DGAT2 membrane.

Sequence of human DGAT2 (hDGAT2) (Q96PD7 whole entry): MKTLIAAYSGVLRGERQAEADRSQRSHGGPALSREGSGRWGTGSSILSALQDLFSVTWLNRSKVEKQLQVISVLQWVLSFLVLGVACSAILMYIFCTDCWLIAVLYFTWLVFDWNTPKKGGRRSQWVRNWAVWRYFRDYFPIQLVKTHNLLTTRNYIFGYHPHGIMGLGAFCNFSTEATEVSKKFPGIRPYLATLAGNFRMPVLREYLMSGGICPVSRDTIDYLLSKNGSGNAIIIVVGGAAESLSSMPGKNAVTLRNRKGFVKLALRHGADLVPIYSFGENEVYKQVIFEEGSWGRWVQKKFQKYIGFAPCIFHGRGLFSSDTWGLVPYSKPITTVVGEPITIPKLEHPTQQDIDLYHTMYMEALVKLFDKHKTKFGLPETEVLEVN

In order of falling IC50:
1. Cc1cc(C)nc(-c2cn(-c3ccc(F)cc3)c3cc(C(=O)NC4CCS(=O)(=O)C4)ccc23)c1 (racemic) [Example 20, 3-(4,6-dimethylpyridin-2-yl)-N-(1,1-dioxidotetrahydrothiophen-3-yl)-1-(4-fluorophenyl)-1H-indole-6-carboxamide (racemic)]  802 nM
2. O=C(NC1CCS(=O)(=O)C1)c1ccc2c(-c3ccccn3)cn(-c3ccc(F)cc3)c2c1 (racemic) [Example 22, N-(1,1-dioxidotetrahydrothiophen-3-yl)-1-(4-fluorophenyl)-3-(pyridin-2-yl)-1H-indole-6-carboxamide (racemic)]  664 nM
3. Cc1ccnc(-c2cn(-c3ccc(F)cc3)c3cc(C(=O)NC4(C)CCS(=O)(=O)C4)ccc23)c1 (racemic) [Example 24, 1-(4-fluorophenyl)-N-(3-methyl-1,1-dioxidotetrahydrothiophen-3-yl)-3-(4-methylpyridin-2-yl)-1H-indole-6-carboxamide (racemic)]  571 nM
4. COCC(C)NC(=O)c1ccc2c(-c3ccccc3Cl)cn(-c3ccc(F)cc3)c2c1 (racemic) [Example 3, 3-(2-chlorophenyl)-1-(4-fluorophenyl)-N-(1-methoxypropan-2-yl)-1H-indole-6-carboxamide (racemic)]  344 nM
5. O=C(NC1CCS(=O)(=O)C1)c1ccc2c(-c3cc(Cl)ccn3)cn(-c3ccc(F)cc3)c2c1 (racemic) [Example 21, 3-(4-chloropyridin-2-yl)-N-(1,1-dioxidotetrahydrothiophen-3-yl)-1-(4-fluorophenyl)-1H-indole-6-carboxamide (racemic)]  252 nM
6. COc1ccccc1-c1cn(-c2ccc(F)cc2)c2cc(C(=O)NC3CCS(=O)(=O)C3)ccc12 (racemic) [Example 29, N-(1,1-dioxidotetrahydrothiophen-3-yl)-1-(4-fluorophenyl)-3-(2-methoxyphenyl)-1H-indole-6-carboxamide (racemic)]  223 nM
7. CC(=O)Nc1cccc(-c2cn(-c3ccc(F)cc3)c3cc(C(=O)NC4CCS(=O)(=O)C4)ccc23)c1 (racemic) [Example 37, 3-[3-(acetylamino)phenyl]-N-(1,1-dioxidotetrahydrothiophen-3-yl)-1-(4-fluorophenyl)-1H-indole-6-carboxamide (racemic)]  163 nM
8. Cc1ccnc(-c2cn(-c3ccc(F)cc3)c3cc(C(=O)NC4CCS(=O)(=O)C4)ccc23)c1 (racemic) [Example 23, N-(1,1-dioxidotetrahydrothiophen-3-yl)-1-(4-fluorophenyl)-3-(4-methylpyridin-2-yl)-1H-indole-6-carboxamide (racemic)]  117 nM
9. O=C(NC1CCS(=O)(=O)C1)c1ccc2c(-c3ccccc3OC(F)F)cn(-c3ccc(F)cc3)c2c1 (racemic) [Example 42, 3-[2-(difluoromethoxy)phenyl]-N-(1,1-dioxidotetrahydrothiophen-3-yl)-1-(4-fluoropheny)-1H-indole-6-carboxamide (racemic)]  108 nM
10. O=C(NC1CCS(=O)(=O)C1)c1ccc2c(-c3cccc(F)c3)cn(-c3ccc(F)cc3)c2c1 (racemic) [Example 35, N-(1,1-dioxidotetrahydrothiophen-3-yl)-3-(3-fluorophenyl)-1-(4-fluorophenyl)-1H-indole-6-carboxamide (racemic)]  101 nM
11. O=C(NC1CCS(=O)(=O)C1)c1ccc2c(-c3cc(Cl)cc(Cl)c3)cn(-c3ccc(F)cc3)c2c1 (racemic) [Example 41, 3-(3,5-dichlorophenyl)-N-(1,1-dioxidotetrahydrothiophen-3-yl)-1-(4-fluorophenyl)-1H-indole-6-carboxamide (racemic)]  88 nM
12. O=C(NC1CCS(=O)(=O)C1)c1ccc2c(-c3ccccc3Cl)cn(-c3ccc(F)cc3)c2c1 (racemic) [Example 2, 3-(2-Chlorophenyl)-N-(1,1-dioxidotetrahydrothiophen-3-yl)-1-(4-fluorophenyl)-1H-indole-6-carboxamide]  66 nM
13. O=C(NC1CCS(=O)(=O)C1)c1ccc2c(-c3cccc(-c4ccccc4)c3)cn(-c3ccc(F)cc3)c2c1 (racemic) [Example 36, 3-biphenyl-3-yl-N-(1,1-dioxidotetrahydrothiophen-3-yl)-1-(4-fluorophenyl)-1H-indole-6-carboxamide (racemic)]  61 nM
14. O=C(NC1CCS(=O)(=O)C1)c1ccc2c(-c3cccc(Cl)c3)cn(-c3ccc(F)cc3)c2c1 (racemic) [Example 31, 3-(3-chlorophenyl)-N-(1,1-dioxidotetrahydrothiophen-3-yl)-1-(4-fluorophenyl)-1H-indole-6-carboxamide (racemic)]  28 nM
15. O=C(NC1CCS(=O)(=O)C1)c1ccc2c(-c3ccccc3F)cn(-c3ccc(F)cc3)c2c1 (racemic) [Example 40, N-(1,1-dioxidotetrahydrothiophen-3-yl)-3-(2-fluorophenyl)-1-(4-fluorophenyl)-1H-indole-6-carboxamide (racemic)]  26 nM
16. O=C(NC1CCS(=O)(=O)C1)c1ccc2c(-c3cccc(C(F)(F)F)c3)cn(-c3ccc(F)cc3)c2c1 (racemic) [Example 30, N-(1,1-dioxidotetrahydrothiophen-3-yl)-1-(4-fluorophenyl)-3-[3-(trifluoromethyl)phenyl]-1H-indole-6-carboxamide (racemic)]  18 nM
17. Cc1c(-c2cccc(OC(F)F)c2)c2ccc(C(=O)NC3(C)CCS(=O)(=O)C3)cc2n1-c1ccc(F)cc1 (racemic) [Example 28, 3-(3-(difluoromethoxy)phenyl)-1-(4-fluorophenyl)-2-methyl-N-(3-methyl-1,1-dioxidotetrahydrothiophen-3-yl)-1H-indole-6-carboxamide (racemic)]  17 nM
18. O=C(NC1CCS(=O)(=O)C1)c1ccc2c(-c3cccc(-n4cccn4)c3)cn(-c3ccc(F)cc3)c2c1 (racemic) [Example 38, N-(1,1-dioxidotetrahydrothiophen-3-yl)-1-(4-fluorophenyl)-3-[3-(1H-pyrazol-1-yl)phenyl]-1H-indole-6-carboxamide (racemic)]  15 nM
19. Cc1cccc(-c2cn(-c3ccc(F)cc3)c3cc(C(=O)NC4CCS(=O)(=O)C4)ccc23)c1 (racemic) [Example 34, N-(1,1-dioxidotetrahydrothiophen-3-yl)-1-(4-fluorophenyl)-3-(3-methylphenyl)-1H-indole-6-carboxamide (racemic)]  13 nM
20. CC1(NC(=O)c2ccc3c(-c4ccccc4Cl)cn(-c4ccc(F)cc4)c3c2)CCS(=O)(=O)C1 (racemic) [Example 1, 3-(2-chlorophenyl)-1-(4-fluorophenyl)-N-(3-methyl-1,1-dioxidotetrahydrothiophen-3-yl)-1H-indole-6-carboxamide]  8.8 nM
21. COc1cccc(-c2cn(-c3ccc(F)cc3)c3cc(C(=O)NC4CCS(=O)(=O)C4)ccc23)c1 (racemic) [Example 33, N-(1,1-dioxidotetrahydrothiophen-3-yl)-1-(4-fluorophenyl)-3-(3-methoxyphenyl)-1H-indole-6-carboxamide (racemic)]  4 nM
22. COC(=O)c1cccc(-c2cn(-c3ccc(F)cc3)c3cc(C(=O)NC4CCS(=O)(=O)C4)ccc23)c1 (racemic) [Example 32, methyl 3-{6-[(1,1-dioxidotetrahydrothiophen-3-yl)carbamoyl]-1-(4-fluorophenyl)-1H-indol-3-yl}benzoate (racemic)]  3.2 nM
23. O=C(NC1CCS(=O)(=O)C1)c1ccc2c(-c3cccc(OC(F)F)c3)cn(-c3ccc(F)cc3)c2c1 (racemic) [Example 39, 3-[3-(difluoromethoxy)phenyl]-N-(1,1-dioxidotetrahydrothiophen-3-yl)-1-(4-fluorophenyl)-1H-indole-6-carboxamide (racemic)]  1.1 nM
24. CC1(NC(=O)c2ccc3c(-c4cncc(OC(F)F)c4)cn(-c4ccc(F)cc4)c3c2)CCS(=O)(=O)C1 (racemic) [Example 25, 3-(5-(difluoromethoxy)pyridin-3-yl)-1-(4-fluorophenyl)-N-(3-methyl-1,1-dioxidotetrahydrothiophen-3-yl)-1H-indole-6-carboxamide (racemic)]  0.77 nM

Reference: patent US10947222B2, “Indole derivatives useful as inhibitors of diacylglyceride O-acyltransferase 2” (Merck Sharp & Dohme Corp., priority 2016, dated 2021)
